Data reported in US20250229073A1, “TRANSIENT DISRUPTION OF THE NEUROVASCULAR BARRIER OF A HUMAN AND USES THEREOF FOR TREATING AMYOTROPHIC LATERAL SCLEROSIS” (SORBONNE UNIVERSITE, priority 2022, published 2025).
Each block holds one compound with its values, some of them ahead of it.

Tests used:
[1] = Blood spinal cord barrier opening assessed by Evan's Blue Dye spinal cord uptake quantification; format: in vivo; conditions: healthy WT mice
Protocol: (§1) A 1-cm, 1 MHz planar ultrasound transducer was coupled to the skin with ultrasound coupling gel and positioned to target the lumbar spinal cord. The peak acoustic pressure was 0.5 MPa for tolerance tests in WT mice and 0.35 MPa was sufficient for blood spinal cord disruption assessment and for ALS mouse procedures (FIG. 1). At the beginning of the sonication, 0.2 mL of microbubbles (SonoVue, Bracco®) were injected intravenously. Twenty-four mice were used to test the sonication protocol
Blood spinal cord opening was assessed on 27 WT mice with Evan's Blue Dye (EBD) spinal cord uptake quantification.
(§2) The spinal cord was removed and frozen in liquid nitrogen. • For immunohistological analysis and motor neuron count (fixed tissues), the mice were perfused transcardially with 20 mL PBS then 50 mL of 4% paraformaldehyde in phosphate buffer. The spinal cord was extracted, and placed for 4 hours in 4% paraformaldehyde for post-fixation and then cryopreserved in a 30% sucrose solution in PBS before freezing. Thirty-micron thick transverse sections were cut on a cryostat at −18° C. Floating segments of spinal cord were stored in phosphate buffered saline solution at 4° C. Motor neuron counts were determined on serial sections across the lumbar spinal cords (15-20 sections per animal) after Nissl staining. • For immunostaining, sections were incubated overnight at room temperature with the following antibodies: rabbit anti-Iba1 (1:500 Wako Chemicals), anti-GFAP (1:500 Dako anti GFAP), rat anti-CD4 (1:100, AbD Serotec), rat anti CD3 (1:100, AbD Serotec), rat anti CD8 (1:100, AbD Serotec, rabbit polyclonal to human SOD1 (1:10000, Abcam). Species specific Alexa Fluor 488, 594, 647 (1:1000 Life Technologies) were used as secondary antibodies
GraphPad (GraphPad Software, San Diego, CA) was used for all statistical analysis. Statistical significance was set at p≤0.05. […] A Log-rank P value was calculated with Mantel-Cox test to compare the survival curves and corrected with the Bonferroni coefficient.

[2] = IGF1 spinal cord uptake quantification (Quantikine ELISA human IGF-1); format: in vivo; conditions: healthy WT mice
Protocol: A 1-cm, 1 MHz planar ultrasound transducer was coupled to the skin with ultrasound coupling gel and positioned to target the lumbar spinal cord. […] At the beginning of the sonication, 0.2 mL of microbubbles (SonoVue, Bracco®) were injected intravenously. Twenty-four mice were used to test the sonication protocol
Fourteen sonicated lumbar spinal cord were compared to 15 non-sonicated lumbar spinal cord
GraphPad (GraphPad Software, San Diego, CA) was used for all statistical analysis. Statistical significance was set at p≤0.05. […] Data are represented as Mean+SEM.

[3] = test system: SOD1^G93A ALS mice; assay: Clinical and survival evaluation of treated ALS mice; format: in vivo
Protocol: Eighty Mutant SOD1^G93A female mice modeling ALS [B6.Cg-Tg (SOD1^G93A) 1Gur/J] were purchased from Jackson Laboratories (stock #004435) and 120 wild type control mice (WT), with a C57B16/J genetic background. The animal protocol complied with the European laws for the protection of experimental animals and was approved by the local ethics committee. Mice were maintained on a 12:12 h dark: light cycle with food and water available ad libitum. Moisturized food pellets were supplied when mice became weak. ALS mice were hemizygous for a 12 kb genomic fragment encoding the human wild-type or mutated SOD1 gene under its endogenous promoter. Mice carrying the human SOD1 transgene were identified by PCR screening of tail DNA using mouse SOD1 forward primer (5′-[…]-3′), human SOD1 forward primer (5′-[…]-3′) and mouse and human SOD1 reverse primer (5′-[…]-3′) resulting in a ˜800 bp mouse and a ˜600 bp human SOD1 PCR product.
To represent as close as possible the clinical disease progression in humans, treatment started at the beginning of the disease and not at a presymptomatic stage. SOD1^G93A mice are a particularly severe model in terms of symptoms. The mice quickly become too weak to tolerate general anesthesia, which led us to stop treatments at 135 days of age, or 1 month of treatment (5 sessions). This corresponds approximately to the end of the early phase of the disease.
as §1
Controls and US mice received a subcutaneous injection of 0.9% saline. […]
Muscle strength of mice was assessed by three different motor tests: grip testing, inverted screen testing and wire suspension testing. […]

[4] = test system: SOD1^G93A ALS mice; assay: Histological analysis of spinal cord of the ALS treated mice (immunostaining, motor neuron counts); format: in vivo
Description: The onset of disease was defined as the time point at which the mice were at peak weight before they started to lose weight due to progressive motor neuron denervation and muscle wasting, as shown in FIG. 1. The symptomatic stage was defined as the age at which the mice had lost 10% of their maximal weight and is accompanied by gait alterations and failure of hindlimb splaying reflex. This disease stage was followed by progressive paralysis. […] In each group some randomly assigned mice were sacrificed at the symptomatic stage (defined as 10% of weight loss) or at disease end stage for immunohistological analysis.
as §2
GraphPad (GraphPad Software, San Diego, CA) was used for all statistical analysis. Statistical significance was set at p≤0.05. […] Duration of early and late phases between the groups were compared by ANOVA after a normality test and followed by post-hoc Tukey-Kramer Multiple comparison test or Dunnett's multiple comparison test. Motor neuron count, immune activation and SOD1 expression were compared in different group using Kruskall Wallis test. Data are represented as Mean+SEM. Kruskal Wallis non parametric test was used to compare the total number of lymphocytes (CD4 and CD8). Survival analysis (onset disease, end-stage) was performed with Kaplan-Meier statistics. A Log-rank P value was calculated with Mantel-Cox test to compare the survival curves and corrected with the Bonferroni coefficient.

[5] = test system: patients suffering from ALS; conditions: clinical, literature; cited from earlier work

EBD concentration, sonicated compared to non-sonicated segments [1]: 3.4 times
EBD concentration in spinal cord, non-sonicated segments ([1]; non-sonicated segments): 41 µg/g
EBD concentration in spinal cord, sonicated segments ([1]; sonicated segments of spinal cord): 142 µg/g
Compound: Cc1cc(-c2ccc(/N=N/c3ccc4c(S(=O)(=O)[O-])cc(S(=O)(=O)[O-])c(N)c4c3O)c(C)c2)ccc1/N=N/c1ccc2c(S(=O)(=O)[O-])cc(S(=O)(=O)[O-])c(N)c2c1O.[Na+].[Na+].[Na+].[Na+] [EBD, Evan's Blue Dye]

Compound: IGF1: rhIGF1 (Mecasermine, IPSEN Pharma), Insulin-like Growth Factor 1, subcutaneous injection of 500 μg/kg
IGF1 concentration, sonicated compared to non-sonicated [2]: 1100 times
ALS mouse survival (median age) ([3]; SOD1^G93A mice, 5 weekly sessions from P106, control 166.5 days): 166 days
early disease phase duration ([3]; peak weight to 10% weight loss, control 37.4±3.4, b130 gives the gain in days): 36.8±2.8
effect of IGF1 administration on survival or functional tests ([3]; whether or not associated with ultrasound, 0.5 mg/kg once a week, five injections): no additional effect
immunofluorescent area occupied by SOD1, end stage mice ([4]; disease end stage): lowest percentage of SOD1
number of lymphocytes (CD3+) per section ([4]; end stage, control 11±3.6): 28.5±3.8
astrocyte reactivity, immunoreactive area for GFAP ([4]; stage not given, control 12±2.6, unit from FIG. 4 legend): 5.9±2.5%
immunofluorescent area occupied by SOD1, symptomatic mice ([4]; symptomatic stage (10% weight loss)): lowest percentage of SOD1
microglial reactivity, Iba1 immunoreactivity ([4]; symptomatic stage, control 10.3±0.6%): 5±2.1%
number of lymphocytes (CD3+) per section ([4]; symptomatic stage, control 13±3.5): 20±5.3

Compound: Nc1nc2ccc(OC(F)(F)F)cc2s1 [riluzole, 2-amino-6-trifluoromethoxybenzothiazole]
side effects in ALS patients [5]: asthenia, spasticity and an increase in the transaminase levels
